Data from article PMC9088798, “An Approach to Derive Functional Peptide Inhibitors of Transcription Factor Activity” (JACS Au, 2022).
Where no end group is shown, it is not given here.

Key:
TRE-mDHFR = assay: DHFR activity assay (NADPH turnover at 340 nm), TRE-mDHFR; format: biochemical, murine
Method: (§1) (A) Fifteen TRE sites were introduced into the mDHFR gene (2 silent and 13 substitutions) to allow for a cJun-induced transcriptional block. […] Change in absorbance at 340 nm was measured to determine the rate of NADPH turnover by (B) WT-mDHFR and (C) TRE-mDHFR with or without the substrate DHF. […] Specific activity was calculated from the linear initial rate (first 2.5 min for WT-mDHFR, first 10 min for TRE-mDHFR; +NADPH only reaction blank subtracted). Data are averages from triplicate experiments with errors shown as one standard deviation.
(§2) Jupiter Proteo column (4-μm particle size, 90 Å pore size, 250 × 10 mm; Phenomenex) using a water:acetonitrile gradient (0.1% TFA). Peptides without a SUMO tag, were concentrated after Histrap elution and HPLC purified. […]
(§3) or Mtx (1 µM in reaction). Reactions were initiated by the addition of DHF (50 µM in reaction plus a blank reaction with no DHF) and the absorbance at 340 nm of samples was measured using a Varian Cary 50 UV-Vis spectrophotometer. The specific activity (∆OD/minsample― ∆OD/minblank) was calculated using the following equation. Specific activity = 12.3× mg protein Library Construction and TBS Assay: Library inserts were produced using PCR fill-in reactions from synthesised primers (Sigma) with degenerate codons at the desired positions to produce the correct residue options. […]

WT-mDHFR = assay: DHFR activity assay (NADPH turnover at 340 nm), WT-mDHFR; format: biochemical, murine
Method: as §1, §2, §3

cJun/TRE DNA interaction = biological target: T1, cJun/TRE DNA interaction (Homo sapiens, UniProt P05412); assay: CD TRE DNA peak shift, antagonism of cJun/TRE DNA interaction; format: biochemical; details: cJun 20 μM, TRE DNA 5 μM, DNA peak ~281 nm, Hill equation; three independent experiments, one SD; pH 7.4
T1 construct: The human cJun bZIP domain spans from Arg252 to Leu308; His-SUMO (N, cleaved yes); AS cap (two residues Ala-Ser) (N); GAP cap (three residues Gly-Ala-Pro) (C); made in house; host or cells: E. coli (pET21-His-SUMO plasmid)
Method: The binding of cJun to TRE DNA can be observed by monitoring a DNA absorbance peak in the CD spectrum centered at ∼281 nm.[44] […] The addition of cJun (20 μM) to TRE DNA (5 μM) decreases this DNA peak by 55% as the cJun engages its target TRE site and alters the DNA structure (Figure 6A). Subsequent titration of HingeW into this bound cJun/TRE DNA mixture reverses the peak shift, with the peak increasing as DNA is released.
Figure 6 HingeW antagonizes cJun/TRE DNA interaction more effectively than A-FosW. (A) CD spectra showing a shift in the TRE DNA peak at ∼281 nm upon addition of cJun, which is reversed by the titration of HingeW into the sample, as HingeW sequesters the cJun in a nonfunctional heterodimer. […] EMSA showing the (C) unbound TRE DNA band shift upon addition of cJun and the subsequent restoration of the unbound DNA band intensity upon titration of either (D) HingeW or (E) A-FosW. (F). For both CD and EMSA, data was averaged from three independent experiments and the plotted error bars indicate one standard deviation. […]
(§4) µM) alongside ampicillin, kanamycin and chloramphenicol to maintain the required plasmids, and IPTG (1 mM) to induce protein expression. The library transformants were […]
increased to the optimum 4 µM in subsequent passages. […] This allows the occurrence of library members to be monitored as winner sequences are selected for. […]

[1] = system: cJun bZIP / TRE sites in TRE-mDHFR gene; assay: Transcription block survival (TBS) colony counting in E. coli; format: cell-based, human cJun, expressed in E. coli; details: three experimental repeats
Method: Figure 3 Transcription block survival (TBS) assay to derive functionally active cJun inhibitors. (A) Schematic illustrating the design and operation of TBS. (B) Controlled numbers of E. coli expressing the indicated proteins were plated on selective media and growth rates were calculated by counting colony-forming units. […] (2) A small effect on colony numbers is observed when cJun bZIP is additionally expressed. (3) TRE-mDHFR can replace the inhibited ecDHFR with colony count lower than for WT as expected. […] Although (6) cFos LZ and (7) FosW are known cJun-binders, they are unable to effectively dissociate the cJun bZIP from TRE DNA. However, (8) A-FosW and the TBS-derived hit (9) HingeW remove TRE-mDHFR transcriptional blocks to restore cell survival. Bar charts represent averages of three experimental repeats. Errors are shown as one standard deviation. Selected P values from a t-test are indicated (*P ≤ 0.05; **P ≤ 0.01; ****P ≤ 0.0001) with values for all possible comparisons within the bar chart reported in Figure S7. Serial dilutions were used to quantify colony numbers where required. Also shown are representative plate images and schematics to illustrate the effect upon TRE-mDHFR transcription. […]
Library Construction and TBS Assay: Library inserts were produced using PCR fill-in reactions from synthesised primers (Sigma) with degenerate codons at the desired positions to produce the correct residue options. The library was subcloned using SacI and AscI sites into the pET24a plasmid containing A-FosW. The primers used were cJun- […]
-3’ and cJun-Hinge-Lib_R: 5’-
-3’. The library DNA was transformed into NEB 10-beta electrocompetent E. coli cells. The following equation was utilised to determine library […]
coverage by the number of single colonies: where E is the percentage […] of the library missing, m is the number of colonies collected and n is the library size. This […]
covered. Library DNA quality was assessed by sequencing both the DNA pool and a number of single colonies to show degenerate codons in the correct positions in the pool and to show a diversity of library members from single colonies. The pool of library DNA was transformed into BL21 Gold cells already containing pES300d-TRE-mDHFR and […]
as §4
however a lower stringency is used initially before selection is increased in later steps.
Colonies from this first round of selection were pooled and serially grown in liquid culture at starting OD600 of 0.05 and grown at 37°C with shaking at 200 rpm until the OD600 […]
increased to the optimum 4 µM in subsequent passages. Bacteria containing the most effective functional antagonists were expected to produce higher levels of TRE-mDHFR which provides a growth advantage, and these will dominate the culture. At each passage step, a sample of the culture was plated on LB agar (supplemented with antibiotics to maintain plasmids) to select and sequence individual colonies, and a DNA pool was also sequenced. This allows the occurrence of library members to be monitored as winner sequences are selected for. Assay Validation experiments utilised a modified assay methodology whereby overnight cultures from glycerol stocks of the Control Strains (Figure S6) were diluted to OD600=0.5 and 50 µL was plated on a selective M9 minimal […]

T1 sequence (P05412 252-308): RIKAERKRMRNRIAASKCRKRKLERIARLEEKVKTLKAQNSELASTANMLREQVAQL

CN(Cc1cnc2nc(N)nc(N)c2n1)c1ccc(C(=O)N[C@@H](CCC(=O)O)C(=O)O)cc1 [MTX, methotrexate, reference compound]
inhibition by MTX (TRE-mDHFR): clear inhibition of the reaction
inhibition by MTX (WT-mDHFR): clear inhibition of the reaction

MASLDELQAEIEQLEERNYALRKEIEDLQKQLEKLGAPHHHHHH [FosW, reference compound]
IC50 (cJun/TRE DNA interaction): 119.8 ± 1.1 µM

cFos LZ: human cFos leucine zipper domain, Thr162 to Leu193 [reference compound]
restoration of colony numbers of transcriptionally blocked cells ([1]; TRE-mDHFR + cJun bZIP + peptide vs TRE-mDHFR + cJun bZIP, M9 + TMP + IPTG, P > 0.05): no significant increase in colony numbers

cJun LZ: cJun LZ only construct in which the 25 residue DBD was deleted; Ile277 to Leu308 (IARLEEKVKTLKAQNSELASTANMLREQVAQL; UniProt P05412 277-308, looked up, fragment) [reference compound]
effect of cJun LZ (DBD deleted) on colony formation ([1]; TRE-mDHFR + cJun LZ vs TRE-mDHFR only, P = 0.1): did not affect bacterial colony formation
